Values after ≈ are worked out from the molar mass of the structure shown.
How the values were obtained:
[1] = Microsomal stability, rat liver microsomes; type: in vitro ADME
Protocol: Microsomal stability screen. The microsomal stability of the target compounds was
(§7) determined at the Innopharma Drug Screening and Pharmacogenomics Platform (Santiago de
Compostela, Spain). The human, rat and mice pooled microsomes, with a protein content of 20 mg mL‒1, were purchased from Tebu-Xenotech. The compounds were incubated in a 96-well microplate at 37 °C with the microsomes in 50 mM phosphate buffer (pH = 7.4) containing as cofactors 30 mM MgCl2, 10 mM NADP, 100 mM glucose-6-phosphate and 40
Samples (75 µL) were taken from each well at 0, 10, 20, 40 and 60 min and transferred to a microplate. 4 °C Acetonitrile (75 µL) and internal standard (rolipram) were then added for inactivating the microsomes, and water with 0.5% formic acid (30 µL) was subsequently added for improving the chromatographic conditions, keeping the mixtures at 4 °C. The plate was centrifuged at 46,000 g for 30 min at 15 °C and supernatants were taken and analyzed in a UPLC-MS/MS system (UPLC QSM Waters Acquity) using reverse phase Acquity UPLC® HSST3 1.7 μm (2.1 mm × 50 mm, Waters) as the stationary phase, 0.1% formic acid in water (A) / 0.1% formic acid in acetonitrile (B) as the mobile phase, a flow of 0.8 mL min‒1, and the
The metabolic stability of the compounds was calculated from the logarithm of the remaining compound at each of the time points studied.

[2] = system: SAMP8 mice; assay: Novel object recognition test (NORT) in SAMP8 mice; type: in vivo, mouse; conditions: 2 mg kg^–1 day^–1 oral, 4 weeks, vs vehicle-treated
Excerpt: (§1) In Vivo Proof-of-Concept of the Dual sEH / AChE Inhibitor […] in SAMP8 Mice Animals and treatment. The senescence-accelerated mouse-prone 8 (SAMP8) is an accelerated aging model established through phenotypic selection from AKR/J mice by […]
(§2) abnormal APP and β-amyloid processing and tau pathology, among others. Likewise, SAMP8 […]
(§3) and oxidative stress markers are present at early ages and during adultness.15 In this work, 5-month-old male SAMP8 mice were used to perform behavioral and molecular analyses.
(§4) Animals were randomly divided into SAMP8 control (n=8) and SAMP8 treated with 12c […]
(§5) (n=8, 2 mg kg‒1 day‒1). The animals had free access to food and water and were kept under standard temperature conditions (22 ± 2 °C) and 12-h/12-h light/dark cycles (300 lux/0 lux).
(§6) Compound 12c was dissolved in 1.8% (2-hydroxypropyl)-β-cyclodextrin (Sigma-Aldrich, St.
Louis, MO) and administered through drinking water for 4 weeks (Figure S6 of the Supporting Information). Control groups received water plus 1.8% (2-hydroxypropyl)-β-cyclodextrin during the treatment period. […]
had been replaced by a novel one. The behavior was recorded, and the time that the mice spent exploring the new object (TN) and the old one (TO) were measured manually. […]
The discrimination index (DI) was calculated as (TN‒TO)/(TN+TO). […]

[3] = system: hippocampus of SAMP8 mice; assay: Hippocampal protein levels by western blot in SAMP8 mice; type: in vivo, mouse; conditions: 2 mg kg^–1 day^–1 oral, 4 weeks, vs control
Excerpt: as §1, §2, §3, §4, §5, §6
Louis, MO) and administered through drinking water for 4 weeks (Figure S6 of the Supporting Information). Control groups received water plus 1.8% (2-hydroxypropyl)-β-cyclodextrin during the treatment period. After 4 weeks of treatment, behavioral and cognitive tests were performed to study the effects of treatment on working memory. Drug administration was continued until euthanasia by cervical dislocation, three days after the cognitive tests were completed. The brains were immediately removed from the skulls and the hippocampi were dissected, frozen and maintained at ‒80 °C.
Weight and water consumption were controlled each week, and compound concentration was adjusted accordingly to reach the optimal dose. Mice were treated according to European Community Council Directive 86/609/EEC and were approved by the Institutional Animal Care and Use Committee of the University of Barcelona (670/14/8102) and by Generalitat de Catalunya, Spain (10291). All studies and procedures for the behavioral tests, brain dissection and extractions followed the ARRIVE. Every effort was made to minimize animal suffering and to reduce the number of animals. […]
Exploration was defined as sniffing or touching the objects with the nose and/or forepaws.
The discrimination index (DI) was calculated as (TN‒TO)/(TN+TO). To avoid object preference biases, objects were alternated. 70% EtOH was used to clean the arms and objects after each trial for the elimination of olfactory cues.
Molecular analyses. Immunodetection experiments by western blot. The hippocampal tissue from each animal was homogenized in lysis buffer (Tris HCl pH 7.4 mM, NaCl 150 mM, EDTA 5 mM and 1X-Triton X-100) containing phosphatase and protease inhibitors (Cocktail II, Sigma-Aldrich, St. Louis, MO, USA) to obtain total protein homogenates. The Bradford technique was used to determine total protein concentration. Aliquots of 15 μg of total hippocampal protein were used and separated by sodium dodecyl sulfate-polyacrylamide gel […] (SDS-PAGE) (8‒20%) and transferred into polyvinylidene difluoride (PVDF) membranes (Merck-Millipore, Burlington, MA, USA) for 2 h. The membranes were blocked in 5% non-fat milk in TRIS-buffered saline (TBS) containing 0.1% Tween 20 (TBS-T, Sigma-Aldrich, St. Louis, MO, USA) for 1 h at room temperature, and then, overnight […]
membranes were washed with TBS-T 3 times for 5 min and incubated with secondary antibodies for 1 h at room temperature. Immunoreactive protein was viewed with a Chemiluminescence-based detection kit, following the manufacturer’s protocol (ECL Kit; Merck-Millipore), and digital images were acquired using a ChemiDoc XRS+ System (BioRad lab, Hercules, CA, USA). Semi-quantitative analyses were done using ImageLab Software (BioRad Lab), and results were expressed in Arbitrary Units (AU) considering control protein levels as 100%. Protein loading was routinely monitored by immunodetection of glyceraldehyde-3-phosphate dehydrogenase (GADPH).

[4] = Kinetic aqueous solubility screen (light scattering); conditions: 1% DMSO / 99% PBS
Protocol: Aqueous solubility screen. The kinetic aqueous solubility of the target compounds was
as §7
Compostela, Spain). Ten mM stock solutions of the tested compounds were serially diluted,
NEPHELOstar Plus reader (BMG LABTECH). The results were adjusted to a segmented
linear regression to obtain the maximum concentration in which the compounds were soluble.

Q: Which “% compound remaining unaltered, rat microsomes” value (from here on “% compound remaining unaltered”) ([1]; after 10 min) does the source give for O=C(Nc1ccc(OC(F)(F)F)cc1)NC1CCN(C(=O)CCCCNc2c3c(nc4cc(Cl)ccc24)CCCC3)CC1 [12c, 1-{1-{5-[(6-Chloro-1,2,3,4-tetrahydroacridin-9-yl)amino]pentanoyl}piperidin-4-yl}-3-[4-(trifluoromethoxy)phenyl]urea] here?
A: The value was 100%.

Q: And the “% compound remaining unaltered” value ([1]; after 20 min)?
A: Its value is 79%.

Q: And the “% compound remaining unaltered” value ([1]; after 40 min)?
A: The value was 50%.

Q: What about the microsomal CLint at 1 h, 0.05 µM ([1]; rat, liver microsomes (pooled), pH 7.4, 37 °C) of the same compound?
A: The microsomal CLint at 1 h, 0.05 µM was 26 µL/min/mg.

Q: What about the half-life at 1 h, 0.05 µM ([1]; rat, liver microsomes (pooled), pH 7.4, 37 °C, read-out: t1/2, rat microsomes) of the same compound?
A: The half-life at 1 h, 0.05 µM was 26 min.

Q: What about the remaining at 1 h, 0.05 µM ([1]; rat, liver microsomes (pooled), pH 7.4, after 1 h of incubation at 37 °C, read-out: % remaining compound, rat microsomes) of the same compound?
A: The remaining at 1 h, 0.05 µM was 21%.

Q: And the “short-term working memory (NORT discrimination index)” value ([2]; 2 h retention)?
A: Its value is “significantly ameliorated”.

Q: What about the “long-term working memory (NORT discrimination index)” value ([2]; 24 h retention) of the same compound?
A: The value was “significantly ameliorated”.

Q: What about the “hippocampal levels of synaptophysin (SYN)” value [3] of the same compound?
A: The value was “significantly increased”.

Q: And the “hippocampal protein levels of NFkβ” value [3]?
A: The value was “reduced in mice treated with 12c relative to untreated mice but without reaching statistical significance”.

Q: What about the “hippocampal protein levels of sAPPα” value [3] of the same compound?
A: The value was “significant increase”.

Q: What about the “hippocampal protein levels of sAPPβ” value [3] of the same compound?
A: The value was “tendency toward reduced levels”.

Q: What about the “tau phosphorylation at Ser396” value [3] of the same compound?
A: Its value is “significant site-specific reduction”.

Q: What about the “tau phosphorylation at Ser404” value [3] of the same compound?
A: Its value is “slightly decreased phosphorylation”.

Q: And the solubility at 2 h [4]?
A: Its solubility at 2 h is 7.5 µM (≈ 4.64 µg/mL).

— PMC8958510 (Journal of Medicinal Chemistry, 2022)
